Test results from US5438064A, “Derivatives of 4-anilinoquinoline-3-carboxamide as analgesic agents” (American Home Products Corporation, priority 1991, dated 1995).
Where a name gives a salt, the structure may show the parent alone.

System: bradykinin-induced writhing in mice
Assay: Bradykinin-induced Writhing in Mice
Format: in vivo, mice (male CD-1)
Conditions: 30 mg/kg i.p., mice
Protocol: 2. Bradykinin-induced Writhing in Mice
Male CD-1 Charles River mice (14-19g), fasted overnight but having free access to water, in groups of 10 (control and treated) are given an intraperitoneal (j.p.) injection of 1 mg/kg of prostaglandin PGE2 in phosphate buffered saline (10 μl/g) and after 20 minutes each mouse receives an i.p. injection of bradykinin (0.5 mg/kg in saline). The treatment group of mice receive a test compound either orally 1 hour prior to administration of bradykinin or i.p. 2 minutes prior to administration of bradykinin. Test compounds are given in saline if soluble or as a suspension in 0.5% Tween 80. The percent inhibition of writhing obtained is calculated as follows: [formula] where C is the mean number of writhes in the control group and D is the mean number of writhes in the drag group. If 30% inhibition or higher is observed with the screening dose, the test compound is considered active. Several logarithmically spaced doses will be tested and the ED50 determined by regression methods with inverse prediction.

Row | Structure (SMILES) | Bradykinin-induced writhing, % inhibition at 30 mg/kg i.p. [%]
1 | COc1cccc2c(Nc3ccc(C(=O)NC4CCN(Cc5ccccc5)CC4)cc3)c(C(=O)NC3CCN(Cc4ccccc4)CC3)cnc12 [Ex. 3] | 20
2 | CCCCN1CCC(NC(=O)c2cnc3c(OC)cccc3c2Nc2ccc(C(=O)NC3CCN(Cc4ccccc4)CC3)cc2)CC1 [Ex. 8, N-(1-Butyl-4-piperidinyl)-8-methoxy-4-[[4-[[[1-(phenylmethyl) -4-piperidinyl]amino]carbonyl]phenyl]amino]-3-quinolinecarboxamide] | 32
3 | CCN(CC)C(=O)CCCCCN1CCC(NC(=O)c2cnc3c(OC)cccc3c2Nc2ccc(C(=O)NC3CCN(Cc4ccccc4)CC3)cc2)CC1 [Ex. 9, N-[1-[6-(Diethylamino)-6-oxohexyl]-4-piperidinyl]-8-methoxy-4-[[4-[[[1-(phenylmethyl)-4-piperidinyl]amino]carbonyl]-phenyl]amino]-3-quinolinecarboxamide] | 46

Same assay, conditions: 100 mg/kg p.o., mice

Row | Structure (SMILES) | Bradykinin-induced writhing, % inhibition [%]
4 | CC(C(=O)O)c1cccc(C(=O)c2ccccc2)c1 (stereo not drawn) [Ketoprofen] | 52

Same assay, conditions: 200 mg/kg p.o., mice

Row | Structure (SMILES) | Bradykinin-induced writhing, % inhibition [%]
5 | CC(C)Cc1ccc(C(C)C(=O)O)cc1 (stereo not drawn) [Ibuprofen] | 43

Same assay, conditions: 300 mg/kg p.o., mice

Row | Structure (SMILES) | Bradykinin-induced writhing, % inhibition [%]
6 | CC(=O)Nc1ccc(O)cc1 [Acetaminophen] | 20

Same assay, conditions: Mus musculus, po, read-out: Bradykinin-induced writhing, ED50

Row | Structure (SMILES) | ED50 [mg/kg]
7 | CN1CC[C@]23c4c5ccc(O)c4O[C@H]2[C@@H](O)C=C[C@H]3[C@H]1C5 [Morphine] | 4.5

Molecular target: T1, BK2 receptor sites in guinea pig ileum (Cavia porcellus, UniProt O70526)
T1 construct: The tissue is cut into small pieces and homogenized in 20 volumes of homogenization buffer; from tissue; host or cells: guinea pig distal ileum, membrane homogenate (Hartley strain, male, adult; animals from Charles River)
T1 sequence (O70526 1-372): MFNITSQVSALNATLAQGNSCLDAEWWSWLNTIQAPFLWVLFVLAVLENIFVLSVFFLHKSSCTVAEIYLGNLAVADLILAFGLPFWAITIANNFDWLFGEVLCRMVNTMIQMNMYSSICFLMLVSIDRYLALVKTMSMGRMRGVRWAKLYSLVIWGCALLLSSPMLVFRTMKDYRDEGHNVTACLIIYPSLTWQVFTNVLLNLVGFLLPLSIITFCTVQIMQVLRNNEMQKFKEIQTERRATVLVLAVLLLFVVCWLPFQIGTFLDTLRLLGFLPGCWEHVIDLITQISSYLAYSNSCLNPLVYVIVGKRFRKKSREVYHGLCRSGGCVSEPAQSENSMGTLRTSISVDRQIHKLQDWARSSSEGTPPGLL
Assay: Bradykinin Receptor Binding Assay (competition with 3H-bradykinin for BK2 receptor sites in guinea pig ileum)
Conditions: 80 pM 3H-BK, guinea pig ileum homogenate, 90 min, 25° C., pH 6.8; read-out: Bradykinin Binding in G.P. ileum, IC50
Protocol: 1. Bradykinin Receptor Binding Assay
The following procedure is used to identify compounds which compete specifically with triturated bradykinin (^3 H-BK) for BK2 receptor sites in guinea pig ileum.
The distal portion of adult, male guinea pig (Hartley strain, 350-500 g, Charles River) ileum is removed and placed in ice cold homogenization buffer [[…] N-tris (hydroxymethyl)methyl-2-aminoethane sulfonic acid (TES), 1 mM 1, 10-phenanthroline, adjusted to pH 6.8 with ammonium hydroxide].
The contents of the ileal lumen are rinsed out with cold homogenization buffer. The tissue is cut into small pieces and homogenized in 20 volumes of homogenization buffer 3 times of 10 seconds duration using a Brinkman Polytron homogenizer equipped with a PTA 10 TS generator at setting 5.
The homogenate is fillered through a surgical gauze sponge and centrifuged at 50,000 × g for 20 minutes at 4° C. The supernatant fluid is discarded and the homogenization and centrifugation procedures are repeated. After discarding the supernatant fluid, the final pellet is resuspended in 40 volumes of assay buffer (25 mM TES, pH 6.8, 1 mM 1,10-phenanthroline, 1 mM dithiothreitol, 2 μM captopril, 140 μg/ml bacitracin and 0.1% bovine serum albumin (BSA)). The homogenate is filtered once more through a surgical gauze sponge and kept on ice until used. The assay is performed using only polypropylene pipet tips and polypropylene test tubes. Each tube receives 100 μl of 800 pM ^3 H-BK, 100 μl of the test compound solution […] or vehicle (assay buffer), and 100 μl of 25 mg/ml tissue homogenate in a total volume of 1 ml. The final concentration of 3H-BK is 80 pM. The final tissue concentration is 2.5 mg/ml. Compounds are screened at 100 μM. Compounds which are not soluble in water are first solubilized in DMSO and then diluted 1:100 in the assay buffer. Addition of 100 μl of this sample to the assay will yield a final DMSO concentration of 0.1% which has been shown not to affect the binding assay. Nonspecific binding is determined in the presence of 1 μM unlabeled bradykinin. All determinmions are made in triplicate. Three 100 μl aliquots of the 800 pM 3H-BK working solution are added directly to scintillation vials to determine the total added radioactivity.
The tubes are incubated for 90 minutes at 25° C. while being gently agitated on an orbital shaker. Bound ligand is separated from free ligand, using Whatman GF/B glass fiber filters (pretreated with 0.1% aqueous polyethyleneimine made neutral with HCl). A Brandel receptor binding harvester is used. Assay tubes and glass fiber filters are rinsed three times with 3 ml of cold physiological saline.
The filter discs are transferred to 20 ml scintillation vials. Ten ml of aqueous sample LSC cocktail (Aquassure, New England Nuclear) is added to each vial. After capping, the vials are agitated for 5 minutes on an orbital shaker. The samples are counted for ten minutes in a refrigerated liquid scintillation counter to obtain the following values: Bt (total binding), Bns (non-specific binding) and Bx (total binding in the presence of the test compound). From these values, control specific binding (C=Bt -Bns), specific binding in the presence of the test compound (D=Bx -Bns), percent of control (D/C ×100) and percent inhibition (1-D/C)×100 are calculated.
If 50% inhibition is obtained at the screening concentration, the compound is considered active and a dilution series (typically 1:3 serial dilutions of the test compound) is tested in the binding assay. After calculation of the percent of control of each dilution, the values are analyzed and the IC50 with its 95% confidence limits is determined.

Row | Structure (SMILES) | IC50 [nM]
8 | COc1cccc2c(Nc3ccc(C(=O)NC4CCN(Cc5ccccc5)CC4)cc3)c(C(=O)NC3CCN(Cc4ccc(C(C)(C)C)cc4)CC3)cnc12 [Ex. 1, N-[1-[4-(1,1-Dimethylethyl)phenyl]methyl-4-piperidinyl]-8-methoxy-4-[[4-[[[1-(phenylmethyl) -4-piperidinyl]amino]carbonyl]phenyl]amino]-3-quinolinecarboxamide] | 430
9 | COc1cccc2c(Nc3ccc(C(=O)NC4CCN(Cc5ccccc5)CC4)cc3)c(C(=O)NC3CCN(Cc4cccc(Cl)c4)CC3)cnc12 [Ex. 2] | 79
10 | COc1cccc2c(Nc3ccc(C(=O)NC4CCN(Cc5ccccc5)CC4)cc3)c(C(=O)NC3CCN(Cc4ccccc4)CC3)cnc12 [Ex. 3] | 93
11 | COc1cccc2c(Nc3ccc(C(=O)NC4CCN(Cc5ccccc5)CC4)cc3)c(C(=O)NCCN(C)C)cnc12 [Ex. 4, N-[2-(Dimethylamino)ethyl]-8-methoxy-4-[[4-[[[1-(phenylmethyl) -4-piperidinyl]amino]carbonyl]phenyl]amino]-3-quinolinecarboxamide trifluoroacetate (1:4)] | 2700
12 | CCN(CCN(C)C)C(=O)c1cnc2c(OC)cccc2c1Nc1ccc(C(=O)NC2CCN(Cc3ccccc3)CC2)cc1 [Ex. 5, N-[2-(Dimethylamino)ethyl]-N-ethyl-8-methoxy-4-[[4-[[[1-(phenylmethyl)-4-piperidinyl]amino]carbonyl]phenyl]amino]-3-quinolinecarboxamide] | 2900
13 | CCN(CC)C(=O)CCCCCN1CCC(N(Cc2ccc(Nc3c(C(=O)NC4CCN(Cc5ccccc5)CC4)cnc4c(OC)cccc34)cc2)C(=O)CCC2CCCC2)CC1 [Ex. 6] | 1440
14 | CCCCN1CCC(NC(=O)c2cnc3c(OC)cccc3c2Nc2ccc(C(=O)NC3CCN(Cc4ccccc4)CC3)cc2)CC1 [Ex. 8, N-(1-Butyl-4-piperidinyl)-8-methoxy-4-[[4-[[[1-(phenylmethyl) -4-piperidinyl]amino]carbonyl]phenyl]amino]-3-quinolinecarboxamide] | 1200
15 | CCN(CC)C(=O)CCCCCN1CCC(NC(=O)c2cnc3c(OC)cccc3c2Nc2ccc(C(=O)NC3CCN(Cc4ccccc4)CC3)cc2)CC1 [Ex. 9, N-[1-[6-(Diethylamino)-6-oxohexyl]-4-piperidinyl]-8-methoxy-4-[[4-[[[1-(phenylmethyl)-4-piperidinyl]amino]carbonyl]-phenyl]amino]-3-quinolinecarboxamide] | 2600
16 | CCN(CC)C(=O)c1cccc(CN2CCC(NC(=O)c3cnc4c(OC)cccc4c3Nc3ccc(C(=O)NC4CCN(Cc5ccccc5)CC4)cc3)CC2)c1 [Ex. 11] | 1600
17 | COc1cccc2c(Nc3ccc(C(=O)NC4CCN(Cc5ccccc5)CC4)cc3)c(C(=O)NC3CCN(CCc4ccccc4)CC3)cnc12 [Ex. 12, N-[1-(2-Phenylethyl)-4-piperidinyl]-8-methoxy-4-[[4-[[[1-(phenylmethyl)-4piperidinyl]amino]carbonyl]phenyl]amino]-3-quinolinecarboxamide] | 670
18 | CCCCN1CCC(NC(=O)c2ccc(Nc3c(C(=O)NC4CCN(Cc5ccccc5)CC4)cnc4c(OC)cccc34)cc2)CC1 [Ex. 13, 4-[[4-[[(1-Butyl-4-piperidinyl)amino]carbonyl]phenyl]amino]-8-methoxy-N-[1-(phenylmethyl)-4-piperidinyl]-3-quinoinecarboxamide] | 2900
19 | COc1cccc2c(Nc3ccc(C(=O)NC4CCN(Cc5ccccc5)CC4)cc3)c(C(=O)N(C)C3CCN(C)CC3)cnc12 [Ex. 14] | 1400
20 | COc1cccc(CN2CCC(NC(=O)c3cnc4c(OC)cccc4c3Nc3ccc(C(=O)NC4CCN(Cc5ccccc5)CC4)cc3)CC2)c1 [Ex. 15, N-[1-[(3-Methoxyphenyl)methyl]-4-piperidinyl]-8-methoxy-4-[[4-[[[1-(phenylmethyl)-4-piperidinyl]amino]carbonyl]phenyl]amino]-3-quinoline-carboxamide] | 220
21 | COc1cccc2c(Nc3ccc(C(=O)NC4CCN(Cc5ccccc5)CC4)cc3)c(C(=O)NC3CCN(Cc4cccc(C(F)(F)F)c4)CC3)cnc12 [Ex. 16] | 250
22 | O=C(NC1CCN(Cc2ccccc2)CC1)c1ccc(Nc2c(C(=O)NC3CCN(Cc4ccccc4)CC3)cnc3cc(Cl)ccc23)cc1 [Ex. 17, 7-Chloro-N-[1-(phenylmethyl)-4-piperidinyl]-4-[[4-[[[1-(phenylmethyl)-4-piperidinyl]amino]carbonyl]phenyl]amino]-3-quinolinecarboxamide] | 430

Same assay, conditions: at 10 μM; 80 pM 3H-BK, guinea pig ileum homogenate; read-out: Bradykinin Binding in G.P. ileum, % inhibition at 10 μM

Row | Structure (SMILES) | inhibition at 10 µM [%]
23 | CCCCN1CCC(NCc2ccc(Nc3c(C(=O)NC4CCN(Cc5ccccc5)CC4)cnc4c(OC)cccc34)cc2)CC1 [Ex. 7, 4-[[4-[[(1-Butyl-4-piperidinyl)amino]methyl]phenyl]amino]-8-methoxy-N-[1-(phenyimethyl)-4-piperidinyl]-3-qinolinecarboxamide] | 50.5
24 | CCCCN1CCC(N(Cc2ccc(Nc3c(C(=O)NC4CCN(Cc5ccccc5)CC4)cnc4c(OC)cccc34)cc2)C(=O)CCC)CC1 [Ex. 10] | 42.8
